Test results: publication PMC4445002, “Efficient inhibition of tumor angiogenesis and growth by a synthetic peptide blocking S100A4-methionine aminopeptidase 2 interaction” (Molecular Therapy. Methods & Clinical Development, 2015)

How the values were obtained:
[1] = test system: new blood vessel formation in BALB/c nude mice; assay: Directed in vivo angiogenesis assay (DIVAA) in nude mice; parameters: species or system mouse; details: angioreactors with Afs (bFGF, VEGF, heparin), peptide (1 mg/ml) with atelocollagen, s.c. implant, 15 days, n = 3; NBD P < 0.01
[2] = test system: S100A4-MetAP2 interaction; assay: In vitro GST pull-down binding assay S100A4-MetAP2; details: [35S]MetAP2, GST/S100A4, 1 mmol/l CaCl2; peptide at 25-fold molar excess of MetAP2
[3] = test system: FAK (Tyr397) in MSS31 cells; assay: FAK Tyr397 phosphorylation by western blot; format: cell-based, mouse; details: vs control and CBD peptide-treated cells; 5 μg/well, 18 hours
Description: (§1) Figure 7 Stimulation of the formation of focal contacts by the NBD peptide. MSS31 cells incubated with atelocollagen alone or the peptide/atelocollagen complexes were subjected to immunofluorescent staining and western blot analysis. (a) Formation of focal adhesions. The cells were immunostained with antivinculin or anti-integrin β1 antibody followed by Alexa Fluor 488-conjugated secondary antibody. F-actin was visualized with Atto 647N-Phalloidin. Nuclei were stained with DAPI. Scale bars: 50 μm. (b) Western blot analysis of focal adhesion proteins. Total cellular proteins were subjected to immunoblot analysis. (c) Relative expression level of vinculin (VCN), integrin β1 (ITGβ1) and p-FAK. The band intensity of VCN and ITGβ1 and p-FAK relative to that of β-actin and total FAK, respectively, was measured using ImageJ software and normalized to control cells.
(§2) MSS31 cells cultured in six-well plates were incubated with 5 μg/well of the NBD or the CBD peptide/atelocollagen complex or atelocollagen alone for 18 hours and were lysed in M-PER Mammarian Protein Extraction Reagent (Thermo Fisher Scientific, Waltham, MA) containing complete, EDTA-free, EASYpack (Roche Applied Science, Penzberg, Upper Bavaria, Germany) and Halt Phosphatase Inhibitor Cocktail (Thermo Fisher Scientific). The lysates was used for immunoblot analysis. […]

[4] = test system: vinculin, integrin β1 and FAK in MSS31 cells; assay: Expression of vinculin, integrin β1 and FAK by western blot; format: cell-based, mouse; details: total cell lysates, vs control cells; 5 μg/well, 18 hours
Description: as §1, §2

[5] = test system: PC-3M-Luc cells; assay: PC-3M-Luc cell growth in vitro; format: cell-based, human
Description: Caspase3/7 assays was performed with Apo-ONE Caspase-3/7 Assay
Reagent (Promega). No significant changes are observed.
F i g . […]
PC-3M-Luc cells were treated with atelocollagen alone or the NBD peptide/atelocollagen complex in vitro, and their growth rate was monitored.
The values represent cell growth rate relative to that of control cells that is […]
MSS31 cells were incubated with the peptide/atelocollagen complexes.
Isolation of total RNA and subsequent qRT-PCR analysis were carried out as described previously (30). The GAPDH gene was used as an internal control.
(a) Proangiogenic genes in NBD and CBD peptides-treated cells. (b)
Antiangiogenic genes in NBD and CBD peptides-treated cells.

[6] = test system: MSS31 cells; assay: Capillary formation (tube formation) on Matrigel; format: cell-based, mouse
[7] = test system: PC-3M-Luc tumors; assay: Tumor growth by bioluminescence imaging of PC-3M-Luc xenografts; format: in vivo, human tumor in athymic nude mice
Description: Figure 5 Inhibition of tumor angiogenesis and tumor growth of human prostate cancer cells by the NBD peptide. The peptide/atelocollagen was injected into the subcutaneous tumors on day 3 after inoculation of PC-3M-Luc cells. Atelocollagen alone was injected as controls. (a) Microvessel density. Anti-CD31-antibody staining was used to detect angiogenesis. Arrows show microvessels. The images were digitally processed for assessment of angiogenesis. (b) Inhibition of tumor growth by peptide delivery in vivo. Representative bioluminescent images of nude are shown. L, tumors treated with the CBD peptide; R, tumors treated with the NBD peptide. (c) The photon count of the bioluminescence is shown. […]
Animal experiments were performed in compliance with the guidelines of the Institute for Laboratory Animal Research at the National Cancer Center Research Institute. […] Ten minutes later, photons from animal whole bodies were counted using the IVIS imaging system (Caliper Life Sciences) according to the manufacturer’s instructions. Data were analyzed by living image 2.50 software (Caliper Life Sciences).
The peptide/atelocollagen complex was prepared by mixing equal volumes of atelocollagen (0.1% in PBS at pH 7.4) and peptide solution (1 mg/ml) with rotation for 30 minutes at 4 °C. […] Mice were monitored by bioluminescent imaging 14 days after the injection of the peptide/atelocollagen complex. […]

NBD: N-terminal 39 amino acid sequence of SBD, from Arg170 to Ileu208; corresponding to MetAP2 (170–208) (REAAEAHRQVRKYVMSWIKPGMTMIEICEKLEDCSRKLI)
in vivo angiogenesis (DIVAA) [1]: potently suppressed the angiogenic factors-induced angiogenesis
inhibition of S100A4-MetAP2 interaction (GST pull-down) [2]: inhibited the binding as efficiently as SBD
phosphorylation of Tyr397 of FAK [3]: no significant increase in the phosphorylation of Tyr397 of FAK
expression of vinculin, integrin β1 and FAK [4]: no significant difference in the expressions of vinculin, integrin β1 and FAK
proliferation of PC-3 cells ([5]; discussion wording, p53-null cells): did not influence the proliferation of PC-3 cells
growth rate of PC-3M-Luc cells ([5]; in vitro, NBD peptide/atelocollagen complex, vs untreated, Supplementary Figure S6): comparable growth rate to that of untreated cells
time at which inhibition of capillary formation is apparent ([6]; after peptide loading, Supplementary Figure S4): ≤ 6 h
tube (capillary) formation ([6]; atelocollagen complex, 5 μg/well, Matrigel with 50 ng/ml HGF, 16 hours, n = 6, *P < 0.01): severely impaired tube formation
vascularity and tumor regression ([7]; single intra-tumor administration, human prostate cancer xenografts (abstract)): significantly reduced vascularity, resulting in tumor regression
tumor growth ([7]; single intratumoral injection of 100 μg peptide in atelocollagen, bioluminescence on day 14, vs atelocollagen alone and CBD, n = 7, P < 0.05): significant inhibition of the growth of tumors
